Entries after “also recorded” stand apart in the source; their conditions may differ. Where no end group is shown, it is not given here.
Key:
kinin B2 receptors = target: T1, kinin B2 receptors (Rattus norvegicus, UniProt P25023); assay: [3H]bradykinin binding assay in VSMC; conditions: rat aortic smooth muscle cells
T1 construct: endogenous in cells; host or cells: primary rat aortic vascular smooth muscle cells (male Sprague-Dawley), passage 2-4
T1 sequence (P25023 1-396): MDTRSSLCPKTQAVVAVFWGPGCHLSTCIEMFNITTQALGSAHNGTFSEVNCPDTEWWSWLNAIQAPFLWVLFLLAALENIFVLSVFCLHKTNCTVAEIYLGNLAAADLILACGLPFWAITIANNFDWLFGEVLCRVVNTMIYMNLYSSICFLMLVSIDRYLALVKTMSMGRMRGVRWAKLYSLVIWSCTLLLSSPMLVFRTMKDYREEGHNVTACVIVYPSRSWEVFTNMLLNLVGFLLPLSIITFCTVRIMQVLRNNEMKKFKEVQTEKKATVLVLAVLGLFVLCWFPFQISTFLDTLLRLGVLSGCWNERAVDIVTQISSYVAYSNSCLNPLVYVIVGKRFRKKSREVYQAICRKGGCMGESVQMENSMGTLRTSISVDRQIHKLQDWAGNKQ
Experimental: VSMC grown in 6-well plates were washed with and allowed to equilibrate with 1 ml of binding buffer (25 mM TES, 1 mM phenanthroline, 15 μM captopril, 0.1% BSA, pH 7.0). Saturation binding experiments were performed by incubating cells with [^-3 H] bradykinin (60,000 cpm/well) and varying the concentration of unlabeled bradykinin (5×10^-11 -1×10^-6 M) in binding buffer for 2 h at 4° C. Cells were washed 3 times with 2 ml of ice-cold binding buffer and solubilized for 10 min in 1% SDS, 0.1 M NaOH, 0.1 M Na2 CO3 solution and counted for radioactivity. Data were analyzed using the LIGAND program to determine the affinity constants and the receptor number.

[1] = system: spontaneously hypertensive rats; assay: Mean systemic arterial blood pressure after brain injection of BK fragments; format: in vivo, rat; conditions: hypertensive anesthetized rats, preliminary for BK1-7, BK2-7
Experimental: Experiments were performed on male spontaneously hypertensive rats weighing 250-350 g. Anesthesia and surgical procedures are described (15-17). Following the surgical procedures, animals were allowed to stabilize for 30 minutes. Injections were then made unilaterally into the rostral ventral lateral medulla oblongata. In any given experiment, not more than four doses of the BK fragments were given. Successive injections were alternated between sides after an intervening period of 20 minutes. Mean arterial pressure was measured from a femoral arterial line with a transducer (Statham Laboratories, Inc. Hato Rey, Puerto Rico) and recorded using a polygraph (Grass Instrument Co., Quincy, Mass.). Values shown are the mean changes ± sem.

[2] = published work (11); cited from earlier work
[3] = cited from earlier work
[4] = system: endotoxin (LPS)-treated anesthetized rats; assay: Endotoxin (LPS) shock in anesthetized rats; format: in vivo, rat; conditions: 1 μg/kg IV followed by 143 ng/kg/hr, one hour prior to LPS (12 mg/kg IV); vs vehicle/LPS
Experimental: Male Sprague-Dawley rats (220-480 g) were anesthetized with inactin (120 mg/kg, IP). The trachea was cannulated and the animal was allowed to breath 100% O2. Polyvinyl cannulas (Norton Plastics, Akron, Ohio) were inserted into the jugular vein and the femoral artery for the purposes of infusion of saline and agents and for monitoring of blood pressure, respectively, as described for FIGS. 2 and 3. Heart rate was monitored by tachograph and body temperature was maintained at 37° C. After a 2 hour period of equilibration with saline infusion (0.25 ml/hr), peptides (1 μg/kg followed by 143 ng/kg/hr) or saline were administered, followed one hour later by LPS (12 mg/kg). Time of death was taken as time after administration of LPS when there was no longer a detectable ECG. Values shown are the mean ± sem from the indicated number of studies and were compared using either t-test (FIG. 12A) or ANOVA with Fisher's post-hoc t-test (FIG. 12B).

NC(N)=NCCC[C@@H](N)C(=O)N[C@@H](CCCN=C(N)N)C(=O)N1CCC[C@H]1C(=O)N1C[C@H](O)C[C@H]1C(=O)NCC(=O)N[C@@H](Cc1cccs1)C(=O)N[C@@H](CO)C(=O)N1Cc2ccccc2C[C@@H]1C(=O)N1[C@H](C(=O)N[C@@H](CCCN=C(N)N)C(=O)O)C[C@@H]2CCCC[C@@H]21 [HOE140]
displacement of specific binding of bradykinin to kinin B2 receptors (kinin B2 receptors): specifically displaced

BK2-7: bradykinin fragment PPGFSP (Bradykinin; UniProt P01042 382-387, looked up, fragment)
systemic mean arterial pressure (MAP) response [1]: affect systemic blood pressure

RPPGF [RPPGF, Arg-Pro-Pro-Gly-Phe]
stability in human plasma [2]: highly stable in human plasma

RPPGFSPFR [bradykinin]
plasma half-life [3]: ~ 15 secs.
survival time [4]: did not prolong life; also recorded: does not provide protection

des-arg9-bradykinin (RPPGFSPF; Bradykinin; UniProt P01042 381-388, looked up, fragment)
displacement of specific binding of bradykinin to kinin B2 receptors (kinin B2 receptors): not displaced

Reference: US6071710A, “Antikinin compounds and uses thereof” (MUSC Foundation for Research Development, priority 1997, dated 2000)
